Results from patent publication US9314025B2, “Mixtures of mesoionic pesticides” (E I DU PONT DE NEMOURS AND COMPANY, priority 2009, dated 2016).
Where “and” joins values, the source holds several entries; their conditions need not be identical. Equal entries are not always repeated.

How the values were obtained:
Type in all cases: in vivo
[1] = test system: green peach aphid (Myzus persicae); details: for Percent Mortality, Observed, Cmpd A: in vivo
From the text: (§1) The presence of a synergistic effect between two active ingredients can be established with the aid of the Colby equation (see Colby, S. R., “Calculating Synergistic and Antagonistic Responses of Herbicide Combinations”, Weeds 1967, 15, 20-22):
(§2) Using the method of Colby, the presence of a synergistic interaction between two active ingredients is established by first calculating the predicted activity, p, of the mixture based on activities of the two components applied alone. In the equation above, A is the biological activity in percentage control of one component applied alone at rate x. The B term is the biological activity in percentage control of the second component applied at rate y. The equation calculates p, the predicted biological activity of the mixture of A at rate x with B at rate y if their effects are strictly additive and no interaction has occurred. If the experimentally established effect of the mixture is greater than the predicted activity, p, synergism is present. To use the Colby equation the active ingredients of the mixture are applied in a test separately as well as in combination.
(§3) Test compounds and compositions were formulated using a solution containing 10% acetone, 90% water and 300 ppm X-77® Spreader Lo-Foam Formula non-ionic surfactant containing alkylarylpolyoxyethylene, free fatty acids, glycols and isopropanol (Loveland Industries, Inc. Greeley, Colo., USA). The formulated compounds or compositions were applied in 1 mL of liquid through a SUJ2 atomizer nozzle with 1/8 JJ custom body (Spraying Systems Co. Wheaton, Ill., USA) positioned 1.27 cm (0.5 inches) above the top of each test unit. Tests were replicated three times. After spraying of the formulated test compound or compositions, each test unit was allowed to dry for 1 h and then a black, screened cap was placed on top. The test units were held for 6 days in a growth chamber at 25° C. and 70% relative humidity. Plant feeding damage was then visually assessed based on foliage consumed.
For evaluating control of green peach aphid (Myzus persicae) through contact and/or systemic means, the test unit consisted of a small open container with a 12-15-day-old radish plant inside. This was pre-infested by placing on a leaf of the test plant 30-40 aphids on a piece of leaf excised from a culture plant (cut-leaf method). The aphids moved onto the test plant as the leaf piece desiccated. After pre-infestation, the soil of the test unit was covered with a layer of sand.
Test compounds and compositions were formulated and sprayed as described for Test A. The applications were replicated three times. After spraying of the formulated test compound or composition, each test unit was allowed to dry for 1 h and then a black, screened cap was placed on top. The test units were held for 6 days in a growth chamber at 19-21° C. and 50-70% relative humidity. Each test unit was then visually assessed for insect mortality.
The results calculated as mean averages of results from the three replicates are listed in Table B. Compound 123 was applied at a rate of 50 ppm. Compound 8 was applied at a rate of 250 ppm.

[2] = test system: corn planthopper (Peregrinus maidis); details: for Percent Mortality, Observed, Cmpd A: in vivo
From the text: as §1, §2, §3
For evaluating control of corn planthopper (Peregrinus maidis) through contact and/or systemic means, the test unit consisted of a small open container with a 3-4-day-old maize plant (spike) inside. White sand was added to the top of the soil prior to application. Test compounds and compositions were formulated, sprayed, and replicated three times as described for Test A. After spraying, the test units were allowed to dry for 1 h before they were post-infested with ˜15-20 nymphs (18 to 21 day old) by sprinkling them onto the sand with a salt shaker. A black, screened cap was placed on the top of the cylinder. The test units were held for 6 days in a growth chamber at 22-24° C. and 50-70% relative humidity. Each test unit was then visually assessed for insect mortality.
Compound 123 was applied at a rate of 2.5 ppm. Compound 8 was applied at a rate of 0.2 ppm.

[3] = test system: diamondback moth (Plutella xylostella); test: Test A: control of diamondback moth on radish plant, foliar spray, plant feeding damage assessed visually; details: for Plant Protection, Observed, Cmpd A: in vivo
From the text: as §1, §2
For evaluating control of diamondback moth (Plutella xylostella) the test unit consisted of a small open container with a 12-14-day-old radish plant inside. This was pre-infested with ˜50 neonate larvae that were dispensed into the test unit via corn cob grits using a bazooka inoculator. The larvae moved onto the test plant after being dispensed into the test unit.
as §3
Compound 8 was applied at a rate of 20 ppm.

[4] = test system: Western Flower Thrip (Frankliniellla occidentalis); test: Test D: control of Western Flower Thrip on Soleil bean plant through contact and/or systemic means, plant protection; details: for Plant Protection, Observed, Cmpd A: in vivo
From the text: as §1, §2, §3
For evaluating control of the Western Flower Thrip (Frankliniellla occidentalis) through contact and/or systemic means, the test unit consisted of a small open container with a 5-7-day-old Soleil bean plant inside.
Test compounds and compositions were formulated, sprayed, and replicated three times as described for Test A. After spraying, the test units were allowed to dry for 1 hour and then 22-27 adult thrips were added to the unit and then a black, screened cap was placed on top. The test units were held for 7 days at 25° C. and 45-55% relative humidity.
Compound 8 was applied at a rate of 250 ppm.

Row | Compound | Percent Mortality, Observed, Cmpd A [1] [%] | Percent Mortality, Observed, Cmpd A [2] [%] | further results
1 | CNC(=O)ON=C(C)SC [methomyl] | 28 | 80 | 
2 | N#C/N=C1\SCCN1Cc1ccc(Cl)nc1 [thiacloprid] | 12 | 60 | 
3 | O=C(NC(=O)c1c(F)cccc1F)Nc1ccc(OC(F)(F)C(F)OC(F)(F)F)c(Cl)c1 (centres unmarked) [novaluron] | 7 | 51 | 
4 | spinetoram | 10 | 58 | Plant Protection, Observed, Cmpd A [3]: 40; Plant Protection, Observed, Cmpd A [4]: 27
5 | CC(COc1ccc(Oc2ccccc2)cc1)Oc1ccccn1 (centres unmarked) [pyriproxifen] | 10 | 20 | Plant Protection, Observed, Cmpd A [3]: 0; Plant Protection, Observed, Cmpd A [4]: 7
6 | CN(C)C(CSC(N)=O)CSC(N)=O [cartap] | 15 | 40 | 
7 | CC1(C)[C@H](C(=O)O[C@H](C#N)c2cccc(Oc3ccccc3)c2)[C@@H]1/C=C(\Cl)C(F)(F)F (racemic) [lambda-cyhalothrin] | 39 | 45 | 
8 | CN/C(=N\[N+](=O)[O-])NCc1cnc(Cl)s1 [clothianidin] | 16 | 35 | 
9 | Cc1cc(C(F)(C(F)(F)F)C(F)(F)F)ccc1NC(=O)c1cccc(I)c1C(=O)NC(C)(C)CS(C)(=O)=O [flubendiamide] | 5 | 42 | 
10 | COc1cccc(C(=O)NN(C(=O)c2cc(C)cc(C)c2)C(C)(C)C)c1C [methoxyfenozide] | 16 | 33 | 
11 | CC(C)N1C(=O)N(c2ccccc2)CS/C1=N\C(C)(C)C [buprofezin] | 14 | 44 | 
12 | CNC(=O)c1cc(C#N)cc(C)c1NC(=O)c1cc(Br)nn1-c1ncccc1Cl [cyantraniliprole] | 10 | 67 | 
13 | N#Cc1nn(-c2c(Cl)cc(C(F)(F)F)cc2Cl)c(N)c1[S+]([O-])C(F)(F)F (centres unmarked) [fipronil] | 87 | 21 | 
14 | C/C(=N\C#N)N(C)Cc1ccc(Cl)nc1 [acetamiprid] | 9 | 32 | 
15 | CN/C(=N/CC1CCOC1)N[N+](=O)[O-] (centres unmarked) [dinotefuran] | 33 | 42 | 
16 | CS/C(C)=N\OC(=O)N(C)SN(C)C(=O)O/N=C(\C)SC [thiodicarb] | 25 | 64 | 
17 | CNC(=O)O/N=C(\SC)C(=O)N(C)C [oxamyl] | 23 | 32 | 
18 | CN1COCN(Cc2cnc(Cl)s2)/C1=N\[N+](=O)[O-] [thiamethoxam] | 40 | 29 | 
19 | CCOP(=S)(OCC)Oc1nc(Cl)c(Cl)cc1Cl [chlorpyrifos] | 18 | 48 | 
20 | abamectin | 91 | 90 | Plant Protection, Observed, Cmpd A [3]: 50; Plant Protection, Observed, Cmpd A [4]: 20
21 | O=c1c(-c2cc(OC(F)(F)F)cc(-c3ccc(F)nc3)c2)c([O-])[n+](Cc2cnc(Cl)s2)c2ccccn12 [Compound 123] |  |  | Plant Protection, Observed, Cmpd 123 ([3]; Cmpd 123 alone at 0.1 ppm, foliar spray, 6 days, (0 to 10 rating) × 10, mean of 3 replicates): 33 (5×) and 17 (11×) and 97 (6×) and 80 (6×); Percent Mortality, Observed, Cmpd 123 ([1]; Cmpd 123 alone at 50 ppm, spray, 6 days, mean of 3 replicates): 15% and 18% and 22% and 9% and 66%; Percent Mortality, Observed, Cmpd 123 ([2]; Cmpd 123 alone at 2.5 ppm, spray, 6 days, mean of 3 replicates): 28% and 21% and 8% and 42% and 68%; Plant Protection, Observed, Cmpd 123 ([4]; Cmpd 123 alone at 25 ppm, spray, 7 days, (0 to 10 rating) × 10, mean of 3 replicates): 23 (5×) and 30 (5×) and 33 (6×) and 3 (6×) and 40 (6×)
22 | CCOCn1c(-c2ccc(Cl)cc2)c(C#N)c(Br)c1C(F)(F)F [chlorfenapyr] | 54 | 81 | 
23 | FC(F)(F)c1ccc(OCCCOc2c(Cl)cc(OCC=C(Cl)Cl)cc2Cl)nc1 [pyridalyl] | 13 | 62 | 
24 | N#CCNC(=O)c1cnccc1C(F)(F)F [flonicamid] | 14 | 70 | Plant Protection, Observed, Cmpd A [3]: 10; Plant Protection, Observed, Cmpd A [4]: 60
25 | CC1=NNC(=O)N(/N=C/c2cccnc2)C1 [pymetrozine] | 28 | 76 | 
26 | CCOC(=O)OC1=C(c2cc(C)ccc2C)C(=O)N[C@]12CC[C@@H](OC)CC2 [spirotetramat] | 8 | 65 | 
27 | CCc1nn(C)c(C(=O)NCc2ccc(Oc3ccc(C)cc3)cc2)c1Cl [tolfenpyrad] | 77 | 98 | 
28 | COC(=O)N(C(=O)N1CO[C@@]2(C(=O)OC)Cc3cc(Cl)ccc3C2=N1)c1ccc(OC(F)(F)F)cc1 [indoxacarb] | 32 | 21 | Plant Protection, Observed, Cmpd A [3]: 40; Plant Protection, Observed, Cmpd A [4]: 23
29 | COc1ccc(C(F)(F)F)cc1-c1c([O-])[n+](Cc2ccc(F)nc2)c2ccccn2c1=O [Compound 8] |  |  | Plant Protection, Observed, Cmpd 8 ([3]; Cmpd 8 alone at 20 ppm, foliar spray, 6 days, (0 to 10 rating) × 10, mean of 3 replicates): 13 (5×) and 0 (11×) and 40 (6×) and 17 (6×); Percent Mortality, Observed, Cmpd 8 ([1]; Cmpd 8 alone at 250 ppm, spray, 6 days, mean of 3 replicates): 25% and 13% and 10% and 15%; Percent Mortality, Observed, Cmpd 8 ([2]; Cmpd 8 alone at 0.2 ppm, spray, 6 days, mean of 3 replicates): 38% and 71% and 8% and 55% and 76%; Plant Protection, Observed, Cmpd 8 ([4]; Cmpd 8 alone at 250 ppm, spray, 7 days, (0 to 10 rating) × 10, mean of 3 replicates): 53 (5×) and 37 (5×) and 50 (6×) and 10 (6×) and 30 (6×)
30 | CNC(=O)c1cc(Cl)cc(C)c1NC(=O)c1cc(Br)nn1-c1ncccc1Cl [chlorantraniliprole] | 11 | 33 | 
